Patent US10328061B2, “Treatment of Zika virus infections using alpha-glucosidase inhibitors” (FLORIDA STATE UNIVERSITY RESEARCH FOUNDATION, INC., priority 2016, dated 2019)

Experiments:
[1] = test system: Japanese encephalitis virus; settings: compared with Dengue virus; cited from earlier work
[2] = test system: Japanese encephalitis virus; settings: mice given a lethal dose of Japanese encephalitis virus; cited from earlier work
Zika virus (FSS13025) [3] = test: Zika viral load in serum of Ifnar1-/- mice (ZIKV NS1 ELISA); format: in vivo, Ifnar1-/- mice (C57BL/6 background); settings: 100 mg/kg BW intraperitoneal, day 0 to day 3
Text: FIGS. 2A-2B. Zika viral load in serum in Ifnar1−/− mice. Serum was separated from the blood by centrifugation. Viral load (NS1) was estimated using the ZIKV NS1 ELISA Kit (BioFront Technologies, Fl, USA) as per the manual. Statistical analysis was done by unpaired t-test using GraphPad Prism software. *p<0.05 is considered as significant (FIG. 2B). With castanospermine treatment, there was 46% reduction in Zika virus load as estimated by NS1 protein in the serum (FIG. 2A).
(§1) Ifnar1−/− mice (C57BL/6 background) were obtained (Muller U. et al. “Functional role of type I and type II interferons in antiviral defense”. Science. 1994; 264(5167):1918-21. Epub 1994/06/24). Out of 18 total Ifnar1−/− mice, two mice were dosed with castanospermine and media, 8 mice (male+female) were dosed with saline and ZIKV, and 8 mice were dosed with castanospermine and ZIKV on day-0. The drug was continued for three more days and animals were sacrificed on day-3. Body weight and water consumption were monitored daily.

Zika virus (FSS13025) [4] = test: Zika viral load in liver of Ifnar1-/- mice (ZIKV NS1 gene real time PCR); format: in vivo, Ifnar1-/- mice (C57BL/6 background); settings: 100 mg/kg BW intraperitoneal, day 0 to day 3, ZIKV NS1 gene by real time PCR
Method: FIGS. 3A-3B. Zika viral load in liver of Ifnar1−/− mice. After euthanizing the mice, liver tissue samples were stored in RNAase later buffer, and after homogenization in lysis buffer the total RNA was extracted using Rneasy column (Qiagen). cDNA was prepared using RT reaction. The expression level of the ZIKV NS1 gene was quantified by real time PCR using specific primers. Statistical analysis was done by unpaired t-test using GraphPad Prism software. *p<0.05 is considered as significant (FIG. 3B). There was a 68% decrease in the viral load in the liver with castanospermine treatment (FIG. 3A).
as §1

West Nile Virus = settings: cited from earlier work
FSS-13025 strain of ZIKV = test: Anti-ZIKV activity in SNB-19 cells, ZIKV-NS1 Western blot; format: cell-based, Zika virus; settings: 100 μm, 500 μm and 1 mM, one hour prior to inoculation (MOI=1), harvested 24 hours post-infection
Method: FIG. 1. Castanospermine as anti-ZIKV compound. Castanospermine was screened for antiviral activity against ZIKV infection. Glioblastoma SNB-19 cells were treated with castanospermine at the indicated concentrations one hour prior to inoculation with the FSS-13025 strain of ZIKV (at MOI=1). Cells were harvested 24 hours post-infection and analyzed by Western blot for ZIKV-NS1 or GAPDH.
Cells of the glioblastoma SNB-19 cell line were maintained at 37° C. in 5% CO2 in […], 1× penicillin/streptomycin, and 10% fetal bovine serum (Invitrogen). SNB-19 cells were treated with castanospermine at increasing concentrations (100 μm, 500 μm, and 1 mM) one hour prior to inoculation with the FSS-13025 strain of ZIKV. Cells were harvested 24 hours post-infection and analyzed by Western blot for ZIKV-NS1 or GAPDH.

[5] = by endogenous esterases; cited from earlier work

## CCCCCCCCCN1C[C@H](O)[C@@H](O)[C@H](O)[C@H]1CO [NN-DNJ, N-nonyl-deoxynojirimycin]
[1]
  suppression of cell infection by Japanese encephalitis virus: suppressed cell infection but to a lesser extent than with Dengue virus
[2]
  mortality rate: decreased mortality rate

## O[C@H]1[C@H](O)[C@@H](O)CN2CC[C@H](O)[C@H]12 [castanospermine, (1S,6S,7R,8aR)-Tetrahydroxyoctahydroindolizine]
Zika virus (FSS13025) [3]
  reduction in Zika virus load as estimated by NS1 protein in the serum: 46%
Zika virus (FSS13025) [4]
  decrease in the viral load in the liver: 68%
West Nile Virus
  sensitivity of West Nile Virus: insensitive
FSS-13025 strain of ZIKV
  inhibition of ZIKV infection (ZIKV protein NS1 expression): significantly inhibit ZIKV infection

## CCCC(=O)O[C@H]1CN2CC[C@H](O)[C@@H]2[C@@H](O)[C@@H]1O [celgosivir, 6-O-butanoyl castanospermine]
[5]
  conversion to castanospermine: rapidly converted
